In patent US10414811B2, “Protease-resistant lipidated GLP-1 analogs” (MEDIMMUNE LIMITED, priority 2015, dated 2019):
Read-outs that look alike come from different tables or passages of the source. Square brackets hold non-standard residues; d marks the D form. Peptide text beside a SMILES is read from it. αMeF = C[C@](N)(Cc1ccccc1)C(=O)O; αMeK = C[C@](N)(CCCCN)C(=O)O; αMeS = C[C@](N)(CO)C(=O)O; Aib = CC(C)(N)C(=O)O

How the values were obtained:
Assay type in all cases: cell-based
[1] = target: T1, human glucose-dependent insulinotropic peptide receptor (GIPR) (Homo sapiens, UniProt P48546); test: cAMP assay, human GIPR cells; details: cAMP assay
T1 construct: expressed in transfected cells
T1 sequence (P48546 22-466): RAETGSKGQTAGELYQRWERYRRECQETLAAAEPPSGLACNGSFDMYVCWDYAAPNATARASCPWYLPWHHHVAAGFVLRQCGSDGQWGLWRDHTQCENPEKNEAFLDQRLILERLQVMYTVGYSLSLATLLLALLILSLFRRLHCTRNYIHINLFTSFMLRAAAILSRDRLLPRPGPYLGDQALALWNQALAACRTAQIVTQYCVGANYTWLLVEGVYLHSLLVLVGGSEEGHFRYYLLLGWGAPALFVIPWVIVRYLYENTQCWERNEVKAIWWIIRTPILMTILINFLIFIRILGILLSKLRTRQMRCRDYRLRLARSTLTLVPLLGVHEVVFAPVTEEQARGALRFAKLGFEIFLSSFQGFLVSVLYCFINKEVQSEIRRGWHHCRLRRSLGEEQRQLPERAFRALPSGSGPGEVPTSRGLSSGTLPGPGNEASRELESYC
How it was run: (§1)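 Peptide-stimulated cAMP measured by two-step HTRF after a 30 min room-temperature incubation with receptor-expressing cells (hGLP-1R, hGIPR at 1×10^5 cells/ml; hGCGR at 2×10^5 cells/ml). Duplicate dilutions; EC50 from 4-parameter logistic fit of % Delta F.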

[2] = target: T2, human glucagon receptor (GCGR) (Homo sapiens, UniProt P47871); test: cAMP assay, human GCGR cells; details: cAMP assay
T2 construct: expressed in transfected cells
T2 sequence (P47871 26-477): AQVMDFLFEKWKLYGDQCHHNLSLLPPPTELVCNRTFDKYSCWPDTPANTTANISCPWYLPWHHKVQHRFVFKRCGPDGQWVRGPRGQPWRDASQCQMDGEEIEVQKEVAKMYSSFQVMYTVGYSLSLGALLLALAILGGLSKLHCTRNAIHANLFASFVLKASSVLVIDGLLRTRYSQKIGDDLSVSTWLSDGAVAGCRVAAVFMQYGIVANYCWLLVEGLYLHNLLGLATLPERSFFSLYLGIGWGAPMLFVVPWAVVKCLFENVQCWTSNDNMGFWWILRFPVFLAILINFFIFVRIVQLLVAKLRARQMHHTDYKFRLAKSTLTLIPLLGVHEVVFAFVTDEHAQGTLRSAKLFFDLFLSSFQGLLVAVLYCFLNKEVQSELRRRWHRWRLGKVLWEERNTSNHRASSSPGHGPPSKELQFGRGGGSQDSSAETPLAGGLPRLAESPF
How it was run: as §1

[3] = target: T3, human GLP-1 receptor (GLP-1R) (Homo sapiens, UniProt P43220); test: cAMP assay, human GLP-1R cells
T3 construct: expressed in transfected cells
T3 sequence (P43220 24-463): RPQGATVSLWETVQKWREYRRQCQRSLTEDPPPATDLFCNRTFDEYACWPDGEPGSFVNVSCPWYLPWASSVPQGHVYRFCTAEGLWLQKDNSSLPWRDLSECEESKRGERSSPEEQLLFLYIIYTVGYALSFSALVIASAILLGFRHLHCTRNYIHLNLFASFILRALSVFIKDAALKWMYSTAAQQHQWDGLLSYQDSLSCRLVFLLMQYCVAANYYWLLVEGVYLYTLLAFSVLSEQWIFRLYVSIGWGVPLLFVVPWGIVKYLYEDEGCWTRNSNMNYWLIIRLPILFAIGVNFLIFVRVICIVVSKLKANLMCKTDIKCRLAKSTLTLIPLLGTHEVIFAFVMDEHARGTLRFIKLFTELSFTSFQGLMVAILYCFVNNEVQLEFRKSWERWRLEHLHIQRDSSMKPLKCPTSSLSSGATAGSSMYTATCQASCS
How it was run: as §1

[4] = first determination (n1), read-out: Primary assay EC50 GIP-R (n1)
[5] = second determination (n2), read-out: Primary assay EC50 GIP-R (n2)
[6] = first determination (n1), read-out: Primary assay EC50 Gluc-R (n1)
[7] = second determination (n2), read-out: Primary assay EC50 Gluc-R (n2)
[8] = cAMP assay, first determination (n1), read-out: Primary assay EC50 GLP-1R n1
[9] = cAMP assay, second determination (n2), read-out: Primary assay EC50 GLP-1R n2
[10] = mean of n1 and n2, read-out: Mean pM GLP-1R

Compound	EC50 [1, 4]	EC50 [1, 5]	EC50 [2, 6]	EC50 [2, 7]	EC50 [3, 8]	EC50 [3, 9]	EC50 [3, 10]
CC[C@H](C)[C@H](NC(=O)[C@](C)(Cc1ccccc1)NC(=O)[C@H](CCC(=O)O)NC(=O)[C@](C)(CCCCN)NC(=O)[C@H](C)NC(=O)[C@H](C)NC(=O)[C@H](CCC(=O)O)NC(=O)CNC(=O)[C@H](CCC(=O)O)NC(=O)[C@H](CC(C)C)NC(=O)[C@](C)(Cc1ccccc1)NC(=O)[C@H](CO)NC(=O)[C@H](CO)NC(=O)[C@@H](NC(=O)[C@H](CC(=O)O)NC(=O)[C@](C)(CO)NC(=O)[C@@H](NC(=O)[C@](C)(Cc1ccccc1)NC(=O)[C@H](CO)NC(=O)CNC(=O)[C@H](CCC(=O)O)NC(=O)C(C)(C)NC(=O)[C@@H](N)Cc1c[nH]cn1)[C@@H](C)O)C(C)C)C(=O)N[C@@H](C)C(=O)N[C@@](C)(Cc1ccccc1)C(=O)N[C@H](C(=O)N[C@H](C(=O)N[C@@](C)(CCCCN)C(=O)NCC(=O)NCC(N)=O)C(C)C)C(C)C [compound 16]	≥ 100 nM	≥ 100 nM	≥ 100 nM	≥ 100 nM	11000 pM	9400 pM	10100 pM
CC[C@H](C)[C@H](NC(=O)[C@](C)(Cc1ccccc1)NC(=O)[C@H](CCC(=O)O)NC(=O)[C@](C)(CCCCN)NC(=O)[C@H](C)NC(=O)[C@H](C)NC(=O)[C@H](CCC(=O)O)NC(=O)CNC(=O)[C@H](CCC(=O)O)NC(=O)[C@H](CC(C)C)NC(=O)[C@](C)(Cc1ccccc1)NC(=O)[C@H](CO)NC(=O)[C@](C)(CO)NC(=O)[C@@H](NC(=O)[C@H](CC(=O)O)NC(=O)[C@](C)(CO)NC(=O)[C@@H](NC(=O)[C@](C)(Cc1ccccc1)NC(=O)[C@H](CO)NC(=O)CNC(=O)[C@H](CCC(=O)O)NC(=O)C(C)(C)NC(=O)[C@@H](N)Cc1c[nH]cn1)[C@@H](C)O)C(C)C)C(=O)N[C@@H](C)C(=O)N[C@@](C)(Cc1ccccc1)C(=O)N[C@H](C(=O)N[C@H](C(=O)N[C@@](C)(CCCCN)C(=O)NCC(=O)NCC(N)=O)C(C)C)C(C)C [compound 18]	≥ 100 nM	≥ 100 nM	≥ 100 nM	≥ 100 nM	4100 pM	5800 pM	4940 pM
CC[C@H](C)[C@H](NC(=O)[C@H](Cc1ccccc1)NC(=O)[C@H](CCC(=O)O)NC(=O)[C@H](CCCCN)NC(=O)[C@H](C)NC(=O)[C@H](C)NC(=O)[C@H](CCC(N)=O)NC(=O)CNC(=O)[C@H](CCC(=O)O)NC(=O)[C@H](CC(C)C)NC(=O)[C@H](Cc1ccc(O)cc1)NC(=O)[C@H](CO)NC(=O)[C@H](CO)NC(=O)[C@@H](NC(=O)[C@H](CC(=O)O)NC(=O)C(C)(C)NC(=O)[C@@H](NC(=O)[C@H](Cc1ccccc1)NC(=O)[C@@H](NC(=O)CNC(=O)[C@H](CCC(=O)O)NC(=O)C(C)(C)NC(=O)[C@@H](N)Cc1c[nH]cn1)[C@@H](C)O)[C@@H](C)O)C(C)C)C(=O)N[C@@H](C)C(=O)N[C@@H](Cc1c[nH]c2ccccc12)C(=O)N[C@@H](CC(C)C)C(=O)N[C@H](C(=O)N[C@@H](CCCCN)C(=O)NCC(=O)N[C@@H](CCCNC(=N)N)C(N)=O)C(C)C [compound 20] (H-H[Aib]EGTFT[Aib]DVSSYLEGQAAKEFIAWLVKGR-NH2)	≥ 290 nM	≥ 290 nM	≥ 290 nM	≥ 290 nM	15000 pM	12000 pM	13500 pM
CC[C@H](C)[C@H](NC(=O)[C@H](Cc1ccccc1)NC(=O)[C@H](CCC(=O)O)NC(=O)[C@H](CCCCN)NC(=O)[C@H](C)NC(=O)[C@H](C)NC(=O)[C@H](CCC(N)=O)NC(=O)CNC(=O)[C@H](CCC(=O)O)NC(=O)[C@H](CC(C)C)NC(=O)[C@H](Cc1ccc(O)cc1)NC(=O)[C@H](CO)NC(=O)C(C)(C)NC(=O)[C@@H](NC(=O)[C@H](CC(=O)O)NC(=O)C(C)(C)NC(=O)[C@@H](NC(=O)[C@H](Cc1ccccc1)NC(=O)[C@@H](NC(=O)CNC(=O)[C@H](CCC(=O)O)NC(=O)C(C)(C)NC(=O)[C@@H](N)Cc1c[nH]cn1)[C@@H](C)O)[C@@H](C)O)C(C)C)C(=O)N[C@@H](C)C(=O)N[C@@H](Cc1c[nH]c2ccccc12)C(=O)N[C@@H](CC(C)C)C(=O)N[C@H](C(=O)N[C@@H](CCCCN)C(=O)NCC(=O)N[C@@H](CCCNC(=N)N)C(N)=O)C(C)C [compound 24] (H-H[Aib]EGTFT[Aib]DV[Aib]SYLEGQAAKEFIAWLVKGR-NH2)	≥ 740 nM	≥ 740 nM	≥ 740 nM	≥ 740 nM	3300 pM	7900 pM	5600 pM
CC[C@H](C)[C@H](NC(=O)[C@](C)(Cc1ccccc1)NC(=O)[C@H](CCC(=O)O)NC(=O)[C@](C)(CCCCN)NC(=O)[C@H](C)NC(=O)[C@H](C)NC(=O)[C@H](CCC(=O)O)NC(=O)CNC(=O)[C@H](CCC(=O)O)NC(=O)[C@H](CC(C)C)NC(=O)[C@](C)(Cc1ccccc1)NC(=O)[C@H](CO)NC(=O)[C@](C)(CO)NC(=O)[C@@H](NC(=O)[C@H](CC(=O)O)NC(=O)CNC(=O)[C@@H](NC(=O)[C@](C)(Cc1ccccc1)NC(=O)[C@H](CO)NC(=O)CNC(=O)[C@H](CCC(=O)O)NC(=O)C(C)(C)NC(=O)[C@@H](N)Cc1c[nH]cn1)[C@@H](C)O)C(C)C)C(=O)N[C@@H](C)C(=O)N[C@@](C)(Cc1ccccc1)C(=O)N[C@H](C(=O)N[C@H](C(=O)N[C@@](C)(CCCCN)C(=O)NCC(=O)NCC(N)=O)C(C)C)C(C)C [compound 25] (H-H[Aib]EGS[αMeF]TGDV[αMeS]S[αMeF]LEGEAA[αMeK]E[αMeF]IA[αMeF]VV[αMeK]GG-NH2)	≥ 100 nM	≥ 100 nM	≥ 100 nM	22 nM	500 pM	590 pM	544 pM
CC[C@H](C)[C@H](NC(=O)[C@](C)(Cc1ccccc1)NC(=O)[C@H](CCC(=O)O)NC(=O)[C@](C)(CCCCN)NC(=O)[C@H](C)NC(=O)[C@H](C)NC(=O)[C@H](CCC(=O)O)NC(=O)CNC(=O)[C@H](CCC(=O)O)NC(=O)[C@H](CC(C)C)NC(=O)[C@](C)(Cc1ccccc1)NC(=O)[C@H](CO)NC(=O)[C@](C)(CO)NC(=O)[C@@H](NC(=O)[C@H](CC(=O)O)NC(=O)[C@H](C)NC(=O)[C@@H](NC(=O)[C@](C)(Cc1ccccc1)NC(=O)[C@H](CO)NC(=O)CNC(=O)[C@H](CCC(=O)O)NC(=O)C(C)(C)NC(=O)[C@@H](N)Cc1c[nH]cn1)[C@@H](C)O)C(C)C)C(=O)N[C@@H](C)C(=O)N[C@@](C)(Cc1ccccc1)C(=O)N[C@H](C(=O)N[C@H](C(=O)N[C@@](C)(CCCCN)C(=O)NCC(=O)NCC(N)=O)C(C)C)C(C)C [compound 26] (H-H[Aib]EGS[αMeF]TADV[αMeS]S[αMeF]LEGEAA[αMeK]E[αMeF]IA[αMeF]VV[αMeK]GG-NH2)	≥ 100 nM	≥ 100 nM	≥ 100 nM	30 nM	99 pM	150 pM	123 pM

The remaining lines, values ahead:

EC50 [1, 4]	EC50 [1, 5]	EC50 [2, 6]	EC50 [2, 7]	EC50 [3, 8]	EC50 [3, 9]	EC50 [3, 10]	Compound
≥ 100 nM	≥ 100 nM	≥ 100 nM	40 nM	420 pM	480 pM	446 pM	CC[C@H](C)[C@H](NC(=O)[C@](C)(Cc1ccccc1)NC(=O)[C@H](CCC(=O)O)NC(=O)[C@](C)(CCCCN)NC(=O)[C@H](C)NC(=O)[C@H](C)NC(=O)[C@H](CCC(=O)O)NC(=O)CNC(=O)[C@H](CCC(=O)O)NC(=O)[C@H](CC(C)C)NC(=O)[C@](C)(Cc1ccccc1)NC(=O)[C@H](CO)NC(=O)[C@](C)(CO)NC(=O)[C@@H](NC(=O)[C@H](CC(=O)O)NC(=O)[C@H](CC(=O)O)NC(=O)[C@@H](NC(=O)[C@](C)(Cc1ccccc1)NC(=O)[C@H](CO)NC(=O)CNC(=O)[C@H](CCC(=O)O)NC(=O)C(C)(C)NC(=O)[C@@H](N)Cc1c[nH]cn1)[C@@H](C)O)C(C)C)C(=O)N[C@@H](C)C(=O)N[C@@](C)(Cc1ccccc1)C(=O)N[C@H](C(=O)N[C@H](C(=O)N[C@@](C)(CCCCN)C(=O)NCC(=O)NCC(N)=O)C(C)C)C(C)C [compound 27] (H-H[Aib]EGS[αMeF]TDDV[αMeS]S[αMeF]LEGEAA[αMeK]E[αMeF]IA[αMeF]VV[αMeK]GG-NH2; N-terminus assumed)
≥ 100 nM	≥ 100 nM	≥ 100 nM	≥ 100 nM	80000 pM	97000 pM	88600 pM	CC[C@H](C)[C@H](NC(=O)[C@](C)(Cc1ccccc1)NC(=O)[C@H](CCC(=O)O)NC(=O)[C@](C)(CCCCN)NC(=O)[C@H](C)NC(=O)[C@H](C)NC(=O)[C@H](CCC(=O)O)NC(=O)CNC(=O)[C@H](CCC(=O)O)NC(=O)[C@H](CC(C)C)NC(=O)[C@](C)(Cc1ccccc1)NC(=O)[C@H](CO)NC(=O)[C@](C)(CO)NC(=O)[C@@H](NC(=O)[C@H](CC(=O)O)NC(=O)[C@@H](NC(=O)[C@@H](NC(=O)[C@](C)(Cc1ccccc1)NC(=O)[C@H](CO)NC(=O)CNC(=O)[C@H](CCC(=O)O)NC(=O)C(C)(C)NC(=O)[C@@H](N)Cc1c[nH]cn1)[C@@H](C)O)C(C)C)C(C)C)C(=O)N[C@@H](C)C(=O)N[C@@](C)(Cc1ccccc1)C(=O)N[C@H](C(=O)N[C@H](C(=O)N[C@@](C)(CCCCN)C(=O)NCC(=O)NCC(N)=O)C(C)C)C(C)C [compound 30] (H-H[Aib]EGS[αMeF]TVDV[αMeS]S[αMeF]LEGEAA[αMeK]E[αMeF]IA[αMeF]VV[αMeK]GG-NH2; N-terminus assumed)
